Measurements published in patent US4656190A, “Indene derivatives and their use as PAF-antagonists” (Merck & Co., Inc., priority 1983, dated 1987).
Where “and” joins values, the source holds several entries; their conditions need not be identical. Equal values may be shown once. Read-outs that look alike come from different tables or passages of the source.

Tests used:
[1] = molecular target: T1, PAF specific receptor binding site on rabbit platelet plasma membranes (Oryctolagus cuniculus, UniProt G1TEI7); test: Inhibition of 3H-PAF binding to rabbit platelet plasma membranes
T1 construct: from tissue; host or cells: rabbit platelets (plasma membrane suspension)
Experimental: In vitro, they inhibit PAF-induced functions in both the cellular and tissue levels by disturbing the PAF binding to its specific receptor site. The ability of a compound of formula (I) to inhibit the PAF binding to its specific receptor binding site on rabbit platelet plasma membranes was measured by an assay recently developed by us.
The inhibition of H^3 -PAF binding to the rabbit platelet plasma membrane by a PAF-antagonist of Formula (I) was determined by a method employing isotropic labeling and filtration techniques. Generally, a series of Tris-buffered solutions of the selected antagonist at predetermined concentrations were prepared. Each of these solutions contains 1 pmole of ^3 H-PAF, a known amount of the test antagonist, and a sufficient amount of the pH 7.5 Tris-buffer solution (10 mM Tris, 0.25% bovine serum albumin, and 150 mM NaCl per ml water) to make the final volume of 1 ml. After adding into a set of test tubes each with 100 μg of the platelet plasma membrane suspension (S. B. Hwang, et al., Biochemistry, 22, 4756 (1983)) and one of the Tris-buffer solutions described above, the resulting mixture in each test tube was incubated at 0° C. for about one hour or until the reaction was complete. Two control samples, one of which (C1) contains all the ingredients described above except the antagonist and the other (C2) contains C1 plus a 1000-fold excess of unlabeled PAF, were also prepared and incubated simultaneously with the test samples. After the incubation was completed, the contents of each test tube were filtered under vacuo through a Whatman GF/C fiberglass filter and the residue washed rapidly several times with a total of 20 ml cold (0°-5° C.) Tris-buffer solution. Each washed residue was then suspended in 10 ml scintillation solution (Aquasol 2, New England Nuclear, Connecticut) and the radioactivity was counted in a Packard Tri-Carb 460CD Liquid Scintillation System. Defining the counts from a test sample as "Total binding with antagonist"; the counts from the control sample C1, as "Total binding C1 "; and the counts from the control sample C2 as "non-specific binding C2 ", the percent inhibition of each test antagonist can be determined by the following equation: [formula]

[2] = tested on: PAF-induced cutaneous vascular permeability; test: In vivo assay: inhibition of PAF-induced increase of cutaneous vasopermeability in guinea pigs after oral dosing; conditions: guinea pig
Experimental: The specific PAF-antagonistic activities are further established by in vivo assays following the protocol (modified procedure of Humphrey et al., Lab. Investigation, 46, 422 (1982)) described below:
Protocol for the Evaluation of the Oral Activity of
PAF Antagonists or the Inhibition of PAF-Induced
Increase of Vasopermeability by PAF-Antagonists
I. Animal species: 5 guinea pigs (400-500 g)
(4.) Ground and suspend a PAF antagonist of formula
(I) with intensive sonication in 3 ml of 0.5%
aqueous methylcellulose solution.
(5.) Administer orally to each of the animals T1,
T2, T3 and T4 an appropriate amount (in
terms of mg/kg of bodyweight) of the antagonist
solution from 4), except the control animal
(6.) Forty minutes after the oral administration,
(7.) After 20 minutes or when the anesthetics became
effective, inject intracardially to each animal
and inject intracutaneously, in duplicate 0.1
ml of a PAF solution in Tris-buffer or 0.1 ml
of the Tris-buffer itself (control) according
(9.) Wait for 30 minutes or until the blue color
(13.) In the meantime, extract a 100 μl sample of
(15.) Measure the absorbance of each supernatant from
Palo Alto, CA). Calculate the amount of Evans
blue in each skin sample in terms of the volume
(μl) of the exuded blood plasma according to
the following equation: […]
(16.) Draw a plasma exudation curve
(17.) Calculate the percent inhibition of PAF-induced
cutaneous vascular permeability from measuring
the area under the plasma exudation curve of
the control animal (AC) and that of an
animal treated orally with an antagonist
(AD), for example T1, according to the […]

[3] = Table 1, E (trans), read-out: % Inhibition of PAF Binding
[4] = Table 1, E (trans), dose 5 μM, read-out: % Inhibition of PAF Binding
[5] = Table II, Z (cis), dose 5 μM, read-out: % Inhibition of PAF Receptor
[6] = Table II, Z (cis), read-out: % Inhibition of PAF Receptor

T1 sequence (G1TEI7 1-342): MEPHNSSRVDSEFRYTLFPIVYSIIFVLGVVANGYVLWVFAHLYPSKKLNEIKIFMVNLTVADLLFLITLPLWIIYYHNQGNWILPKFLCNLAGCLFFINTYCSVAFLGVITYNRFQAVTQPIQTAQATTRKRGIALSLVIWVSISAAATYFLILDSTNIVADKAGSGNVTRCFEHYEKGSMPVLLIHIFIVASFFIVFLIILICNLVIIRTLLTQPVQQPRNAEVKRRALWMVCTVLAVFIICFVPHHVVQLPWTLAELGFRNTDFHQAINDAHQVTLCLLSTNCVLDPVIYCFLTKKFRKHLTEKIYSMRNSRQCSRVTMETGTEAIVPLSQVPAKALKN

## COCCC1=C(C)/C(=C\c2ccc(S(N)(=O)=O)cc2)c2ccc(F)cc21 [E CH2CH2OCH3 / SO2NH2 / F, E 1-(4-aminosulfonylphenyl)methylene-5-fluoro-2-methyl-1H-3-indenyl-(2-methoxy)ethane]
[1]; read-out: % Inhibition of PAF Binding
  inhibition at 5 µM: 61%

## COc1ccc2c(c1)C(CCO)=C(C)/C2=C\c1ccc(S(N)(=O)=O)cc1 [E CH2CH2OH / SO2NH2 / OCH3, E 1-(4-aminosulfonyl)methylene-5-methoxy-2-methyl-1H-3-indenyl-(2-hydroxy)ethane]
[1]; [3]
  inhibition at 1 µM: 59%

## COc1ccc2c(c1)C(CCSc1ccccc1)=C(C)/C2=C\c1ccc(S(N)(=O)=O)cc1 [E CH2CH2SC6H5 / SO2NH2 / OCH3, E 1-(4-aminosulfonylphenyl)methylene-5-methoxy-2-methyl-1H-3-indenyl-(2-phenylthio)ethane]
[1]; [4]
  inhibition at 5 µM: 56%

## COc1ccc2c(c1)C(CC[S+](C)[O-])=C(C)/C2=C\c1ccc(S(N)(=O)=O)cc1 (stereo not drawn) [E CH2CH2SOCH3 / SO2NH2 / OCH3, E 1-(4-aminosulfonylphenyl)methylene-5-methoxy-2-methyl-1H-3-indenyl-(2-methylsulfinyl)ethane]
[1]; [3]
  inhibition at 0.5 µM: 24%
[1]; [4]
  inhibition at 5 µM: 74%

## COC(=O)CC1=C(C)/C(=C\c2ccc(OC)c(OC)c2)c2ccc(OC)cc21 [E CH2COOCH3 / 3,4-dimethoxy / OCH3, E methyl 1-(3,4-dimethoxyphenyl)methylene-5-methoxy-2-methyl-1H-3-indenylacetate]
[1]; [3]
  inhibition at 1 µM: 45%
  inhibition at 10 µM: 87%

## COC(=O)CC1=C(C)/C(=C\c2ccc(S(N)(=O)=O)cc2)c2ccc(F)cc21 [E CH2COOCH3 / SO2NH2 / F, E-Methyl 1-(4-aminosulfonylphenyl)methylene-5-fluoro-2-methyl-1H-3-indenylacetate]
[1]; [3]
  inhibition at 1 µM: 60%

## CNS(=O)(=O)c1ccc(/C=C2\C(C)=C(CC(=O)OC)c3cc(F)ccc32)cc1 [E CH2COOCH3 / SO2NHCH3 / F, E Methyl 1-[4-(N-methylaminosulfonyl)phenyl]-methylene-5-fluoro-2-methyl-1H-3-indenylacetate]
[1]; [3]
  inhibition at 1 µM: 56%

## CNS(=O)(=O)c1ccc(/C=C2\C(C)=C(CC(=O)OC)c3cc(OC)ccc32)cc1 [E CH2COOCH3 / SO2NHCH3 / OCH3, E Methyl 1-(4-(N-methylaminosulfonyl)phenyl)methylene-5-methoxy-2-methyl-1H-3-indenylacetate]
[1]; [3]
  inhibition at 0.5 µM: 67%
[1]; [4]
  inhibition at 5 µM: 100%

## COC(=O)CC1=C(C)/C(=C\c2ccc([S+](C)[O-])cc2)c2ccc(F)cc21 (stereo not drawn) [E CH2COOCH3 / SOCH3 / F]
[1]; [4]
  inhibition at 5 µM: 45%

## COc1ccc2c(c1)C(CC(=O)O)=C(C)/C2=C\c1ccc(S(N)(=O)=O)cc1 [E CH2COOH / SO2NH2 / OCH3, 1-(4-aminosulfonylphenyl)methylene-5-methoxy-2-methyl-1H-3-indenyl acetic acid]
[1]; [4]
  inhibition at 5 µM: 4%

## COc1ccc2c(c1)C(CCn1ccnc1)=C(C)/C2=C\c1ccc(S(N)(=O)=O)cc1 [E drawing 16 / SO2NH2 / OCH3]
[1]; Table 1, E (trans), dose 0.1 μM, read-out: % Inhibition of PAF Binding
  inhibition at 0.1 µM: 17%
[1]; [3]
  inhibition at 0.5 µM: 31%
  inhibition at 1 µM: 45%
[1]; [4]
  inhibition at 5 µM: 90%

## COc1ccc2c(c1)C(CCn1ccnc1)=C(C)/C2=C\c1ccc(S(N)(=O)=O)cc1 [E drawing 22 / SO2NH2 / OCH3]
[2]; 45 mg/kg
  % In Vivo Inhibition of PAF Receptor: 52%
[2]; 50 mg/kg
  % In Vivo Inhibition of PAF Receptor: 59%

## CSc1ccc(/C=C2/C(C)=C(CCNC(C)=O)c3cc(F)ccc32)cc1 [Z CH2CH2NHCOCH3 / SCH3 / F]
[1]; [5]
  inhibition at 5 µM: 50%

## CC(=O)NCCC1=C(C)/C(=C/c2ccc(S(C)(=O)=O)cc2)c2ccc(F)cc21 [Z CH2CH2NHCOCH3 / SO2CH3 / F, Z 1-(4-methylsulfonylphenyl)methylene-5-fluoro-2-methyl-1H-3-indenyl-(2-acetamido)ethane]
[1]; Table II, Z (cis), dose 5 μM
  % Inhibition of PAF Receptor: 68% and 90%

## CC(=O)NCCC1=C(C)/C(=C/c2ccc([S+](C)[O-])cc2)c2ccc(F)cc21 (stereo not drawn) [Z CH2CH2NHCOCH3 / SOCH3 / F, Z 1-(4-methylsulfinylphenyl)methylene-5-fluoro-2-methyl-1H-3-indenyl-(2-acetamido)ethane]
[1]; [5]
  inhibition at 5 µM: 39%

## COCCC1=C(C)/C(=C/c2ccc(S(N)(=O)=O)cc2)c2ccc(F)cc21 [Z CH2CH2OCH3 / SO2NH2 / F, Z 1-(4-aminosulfonylphenyl)methylene-5-fluoro-2-methyl-1H-3-indenyl-(2-methoxy)ethane]
[1]; read-out: % Inhibition of PAF Receptor
  inhibition at 5 µM: 29%

## COc1ccc2c(c1)C(CCSc1ccccc1)=C(C)/C2=C/c1ccc(S(N)(=O)=O)cc1 [Z CH2CH2SC6H5 / SO2NH2 / OCH3, Z 1-(4-aminosulfonylphenyl)methylene-5-methoxy-2-methyl-1H-3-indenyl-(2-phenylthio)ethane]
[1]; [5]
  inhibition at 5 µM: 33%

## COc1ccc2c(c1)C(CC[S+](C)[O-])=C(C)/C2=C/c1ccc(S(N)(=O)=O)cc1 (stereo not drawn) [Z CH2CH2SOCH3 / SO2NH2 / OCH3, Z 1-(4-aminosulfonylphenyl)methylene-5-methoxy-2-methyl-1H-3-indenyl-(2-methylsulfinyl)ethane]
[1]; [5]
  inhibition at 5 µM: 56%

## COC(=O)CC1=C(C)/C(=C/c2ccc(NS(C)(=O)=O)cc2)c2ccc(OC)cc21 [Z CH2COOCH3 / NHSO2CH3 / OCH3, Z methyl 1-(4-(N-mesylaminophenyl))methylene-5-methoxy-2-methyl-1H-3-indenylacetate]
[1]; Table II, Z (cis)
  inhibition at 3 µM: 35%
[1]; [6]
  inhibition at 10 µM: 72%

## COC(=O)CC1=C(C)/C(=C/c2ccc(S(N)(=O)=O)cc2)c2ccc(OC)cc21 [Z CH2COOCH3 / SO2NH2 / OCH3, Z methyl 1-(4-aminosulfonylphenyl)methylene-5-methoxy-2-methyl-1H-3-indenylacetate]
[1]; [6]
  inhibition at 1 µM: 39%
  inhibition at 10 µM: 75%
[1]; Table II, Z (cis)
  inhibition at 3 µM: 58%
  inhibition at 20 µM: 100%
  inhibition at 50 µM: 100%
[1]; [5]
  inhibition at 5 µM: 66%

## COC(=O)CC1=C(C)/C(=C/c2ccc(S(=O)(=O)NC(=N)N)cc2)c2ccc(OC)cc21 [Z CH2COOCH3 / SONHC(NH)NH2 / OCH3]
[1]; [6]
  inhibition at 1 µM: 50%

## COc1ccc2c(c1)C(CC(=O)O)=C(C)/C2=C/c1ccc(S(N)(=O)=O)cc1 [Z CH2COOH / SO2NH2 / OCH3, 1-(4-aminosulfonylphenyl)methylene-5-methoxy-2-methyl-1H-3-indenylacetic acid]
[1]; [5]
  inhibition at 5 µM: 32%
[1]; Table II, Z (cis)
  inhibition at 20 µM: 57%
  inhibition at 50 µM: 94%

## CCOc1ccc2c(c1)C(CC(=O)O)=C(C)/C2=C/c1ccc([S+](C)[O-])cc1 (stereo not drawn) [Z CH2COOH / SOCH3 / OC2H5]
[1]; [5]
  inhibition at 5 µM: 42%

## COc1ccc2c(c1)C(CCn1ccnc1)=C(C)/C2=C/c1ccc(S(N)(=O)=O)cc1 [Z drawing 18 / SO2NH2 / OCH3, Z 1-(4-aminosulfonylphenyl)methylene-5-methoxy-2-methyl-1H-3-indenyl-[2-(N-imidazolyl)]ethane]
[1]; [5]
  inhibition at 5 µM: 68%
